Assay results taken from US10556865B2, “Synergistic herbicidal composition containing certain pyridine or pyrimidine carboxylic acids and certain cereal and rice herbicides” (Dow AgroSciences, LLC, priority 2007, dated 2020).
“And” between values parts separate entries of the source, which are not always exact repeats. Equal entries are not always repeated.

What was measured:
Assay type in all cases: in vivo
[1] = tested on: Ipomoea hederacea (L.) JACQ. (IPOHE); assay: Postemergence herbicidal mixtures for weed control in direct seeded rice (greenhouse, visual % injury after 3 weeks)
[2] = tested on: Polygonum pensylvanicum L. (POLPY); assay: Postemergence herbicidal mixtures for weed control in direct seeded rice (greenhouse, visual % injury)
[3] = tested on: Cyperus esculentus L. (CYPES); assay: as above
[4] = tested on: Cyperus iria L. (CYPIR); assay: as above
[5] = tested on: Echinochloa species (ECHSS); assay: Herbicidal mixtures for weed control in transplanted paddy rice (in-water application, visual % injury after 3 weeks); settings: ECHCG
Protocol: (§1) Weed seeds or nutlets of the desired test plant species were planted in puddled soil (mud) prepared by mixing a non-sterilized mineral soil (28 percent silt, 18 percent clay, and 54 percent sand, with a pH of about 7.3 to 7.8 and an organic matter content of about 1.0 percent) and water at a ratio of 100 kilograms (kg) of soil to 19 L of water. The prepared mud was dispensed in 250 mL aliquots into 480 mL non-perforated plastic pots with a surface area of 91.6 square centimeters leaving a headspace of 3 centimeters in each pot. Rice seeds were planted in Sun Gro MetroMix® 306 planting mixture, which typically has a pH of 6.0 to 6.8 and an organic matter content of about 30 percent, in plastic plug trays. Seedlings at the second or third leaf stage of growth were transplanted into 650 mL of mud contained in 960 mL non-perforated plastic pots with a surface area of 91.6 cm^2 4 days prior to herbicide application. The paddy was created by filling the 3 centimeter headspace of the pots with water. When required to ensure good germination and healthy plants, a fungicide treatment and/or other chemical or physical treatment was applied. The plants were grown for 4-14 days in a greenhouse with an approximate 14 hr photoperiod which was maintained at about 29° C. during the day and 26° C. during the night. Nutrients were added as Osmocote (17:6:10, N:P:K+minor nutrients) at 2 g per cup. Water was added on a regular basis to maintain the paddy flood, and supplemental lighting was provided with overhead metal halide 1000-Watt lamps as necessary. The plants were employed for testing when they reached the second or third true leaf stage.
(§2) Treatments consisted of esters or salts of compound A, compound C, or compound D and various herbicidal components alone and in combination. For technical grade compounds, a weighed amount, determined by the highest rate to be tested, was placed in an individual 120 mL glass vial and was dissolved in 20 mL of acetone to obtain concentrated stock solutions. […] The concentrated stock solutions obtained were diluted with 20 mL of an aqueous mixture containing 2.5% Agri-dex crop oil concentrate (v/v). For formulated compounds, a measured amount, determined by the highest rate to be tested, was placed in an individual 120 mL glass vial and was dissolved in 20 mL of 2.5% (v/v) Agri-dex crop oil concentrate to obtain concentrated stock solutions. The concentrated stock solutions obtained were diluted with 20 mL of acetone. Applications were made by injecting an appropriate amount of the stock solution into the aqueous layer of the paddy. Control plants were treated in the same manner with the solvent blank. All treated plant material received the same concentration of acetone and crop oil concentrate.
(§3) Forms of compounds A, C, and D were applied on an acid equivalent basis. Other herbicidal components were applied on an active ingredient basis and included acetolactate synthase (ALS)-inhibiting herbicides penoxsulam (triazolopyrimidine chemical class) applied as Grasp SC, […] (sulfonylurea chemical class) applied as Sirius G, and bensulfuron-methyl (sulfonylurea chemical class) applied as Londax; acetyl CoA carboxylase (ACCase) inhibiting herbicides cyhalofop-butyl applied as Clincher G and fenoxaprop-p-ethyl applied as Ricestar HT; auxinic herbicide quinclorac applied as Facet 75 DF; phytoene desaturase inhibiting herbicide norflurazon; and p-hydroxyphenylpyruvate dioxygenase (HPPD) inhibiting herbicide sulcotrione applied as Mikado.
(§4) The treated plants and control plants were placed in a greenhouse as described above and water was added as needed to maintain a paddy flood. After 3 weeks the condition of the test plants as compared with that of the untreated plants was determined visually and scored on a scale of 0 to 100 percent where 0 corresponds to no injury and 100 corresponds to complete kill.

[6] = tested on: Cyperus species (CYPSS); assay: Herbicidal mixtures for weed control in transplanted paddy rice (in-water application, visual % injury)
Protocol: as §1, §2, §3, §4

[7] = tested on: Leptochloa chinensis (L.) NEES (LEFCH); assay: as above
Protocol: as §1, §2, §3, §4

[8] = tested on: Scirpus maritimus L. (SCPMA); assay: as above
Protocol: as §1, §2, §3, §4

[9] = tested on: Sphenoclea zeylanica GAERTN. (SPDZE); assay: as above
Protocol: as §1, §2, §3, §4

[10] = tested on: Fimbristylis miliacea (L.) VAHL (FIMMI); assay: as above
Protocol: as §1, with “When required to ensure good germination and healthy plants, a fungicide treatment and/or other chemical or physical treatment was applied.” left out
as §2, §3, §4

[11] = tested on: Scirpus species (SCPSS); assay: as above; settings: SCPJU; 90 g/ha alone
Protocol: as §1, with “When required to ensure good germination and healthy plants, a fungicide treatment and/or other chemical or physical treatment was applied.” left out
as §2, §3, §4

[12] = tested on: Eleocharis kuroguwai OHWI (ELOKU); assay: as above
Protocol: as §1, §2, §3, §4

[13] = tested on: Russian thistle (Salsola iberica L; SASKR); assay: Postemergence herbicidal activity of mixtures in cereal crops (greenhouse, visual injury)
Outline: (§5)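 Greenhouse postemergence; 2–3 true leaves; ~14 h light, ~18/17 °C. Cpd A or B (Me ester, TEA, K salt) ± 2nd cereal herbicide, solo and 2-/3-way mixes, 187 L/ha in acetone/DMSO-based carrier with crop oil concentrate and Triton X-77. Subirrigated; % injury at 20–22 d. Colby expected.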

[14] = tested on: ivy-leaved speedwell (Veronica hederifolia L; VERHE); assay: as above; settings: 12.5 g/ha
Outline: as §5

[15] = tested on: kochia (Kochia scoparia L; KCHSC); assay: as above
Outline: as §5

[16] = tested on: wild mustard (Sinapis arvensis L; SINAR); assay: as above
Outline: as §5

[17] = tested on: bird's-eye speedwell (Veronica persica L; VERPE); assay: as above
Outline: (§6)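 Weeds grown in greenhouse (~14 h photoperiod, ~18/17 °C day/night) to second–third true leaf stage, sprayed postemergence with compound and second cereal herbicide alone or combined; solvent-blank controls. Injury scored visually after 20-22 days, 0–100% (complete kill); expected mixture activity = A+B−(A×B/100).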

[18] = tested on: scented mayweed (Matricaria chamomila L; MATCH); assay: as above
Outline: as §6

[19] = tested on: wild pansy (Viola tricolor L; VIOTR); assay: as above
Outline: as §6

[20] = tested on: blackgrass (Alopecurus myosuroides L; ALOMY); assay: Postemergence herbicidal activity of mixtures in cereal crops (greenhouse, visual injury 0-100 percent after 20-22 days); settings: 15 g/ha, Table 1
Outline: (§7)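 Plants at second-third true leaf stage sprayed postemergence at 187 L/ha with compound and second cereal herbicide alone and combined; solvent blank controls. Visual injury scored 0-100% versus controls after 20-22 days; expected mixture effects by Colby's equation.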

[21] = tested on: annual ryegrass (Lolium multiflorum L; LOLMG); assay: Postemergence herbicidal activity of mixtures in cereal crops (greenhouse, visual injury); settings: 15 g/ha, Table 1
Outline: as §7

[22] = tested on: wild oats (Avena fatua L; AVEFA); assay: as above; settings: 15 g/ha, Table 1
Outline: as §7

[23] = tested on: windgrass (Apera spica-venti L; APESV); assay: as above; settings: Apera spica-venti, post-emergence, 15 g/ha, Table 1; read-out: APESV Ob
Outline: as §7

[24] = tested on: chickweed (Stellaria media L; STEME); assay: as above; settings: Stellaria media, post-emergence, 15 g/ha; read-out: STEME Ob
Outline: as §5

[25] = tested on: green foxtail (Setaria viridis L; SETVI); assay: as above; settings: 15 g/ha, Table 1
Outline: as §5

[26] = tested on: lamb's-quarters (Chenopodium album L; CHEAL); assay: as above; settings: 15 g/ha
Outline: as §5

[27] = tested on: Leptochloa chinensis (L.) NEES (LEFCH); assay: Postemergence herbicidal mixtures for weed control in direct seeded rice (greenhouse, visual % injury); settings: LEFCH; 70 g/ha alone
[28] = tested on: Digitaria sanguinalis (L.) SCOP. (DIGSA); assay: as above

## CCCCOC(=O)[C@@H](C)Oc1ccc(Oc2ccc(C#N)cc2F)cc1 [Cyhalofop-butyl]
[1]; alone 140 g/ha
  % Injury IPOHE Ob: 0%
[1]; alone 280 g/ha
  % Injury IPOHE Ob: 0%
[2]; alone 100 g/ha
  % Injury POLPY Ob: 0%
[3]; alone 100 g/ha
  % Injury CYPES Ob: 0%
[3]; alone 200 g/ha
  % Injury CYPES Ob: 0%
[4]; alone 140 g/ha
  % Injury CYPIR Ob: 0%
[4]; alone 280 g/ha
  % Injury CYPIR Ob: 0%
[5]; 90 g/ha alone
  % Injury Ob: 50%
[5]; 180 g/ha alone
  % Injury Ob: 75% and 95%
[6]; CYPES, 90 g/ha alone
  % Injury Ob: 0%
[6]; CYPIR, 90 g/ha alone
  % Injury Ob: 0%
[7]; 90 g/ha alone
  % Injury Ob: 50%
[8]; 90 g/ha alone
  % Injury Ob: 0%
[9]; 90 g/ha alone
  % Injury Ob: 0%
[10]; 90 g/ha alone
  % Injury Ob: 0%
[11]
  % Injury Ob: 0%

## CCN(CC)CC.COc1c(Cl)ccc(-c2cc(N)c(Cl)c(C(=O)O)n2)c1Cl [Compound C TEA]
[5]; 35 g/ha alone
  % Injury Ob: 0%
[5]; 70 g/ha alone
  % Injury Ob: 25%
[6]; CYPES, 35 g/ha alone
  % Injury Ob: 0%
[6]; CYPES, 70 g/ha alone
  % Injury Ob: 40%
[6]; CYPIR, 35 g/ha alone
  % Injury Ob: 20%
[6]; CYPIR, 70 g/ha alone
  % Injury Ob: 60%
[12]; 35 g/ha alone
  % Injury Ob: 0%
  % Injury Obs: 0%
[12]; 70 g/ha alone
  % Injury Ob: 50%
  % Injury Obs: 50%
[7]; 35 g/ha alone
  % Injury Ob: 50%
[7]; 70 g/ha alone
  % Injury Ob: 95%
[8]; 35 g/ha alone
  % Injury Ob: 0%
[8]; 70 g/ha alone
  % Injury Ob: 0%
[9]; 35 g/ha alone
  % Injury Ob: 50%
[9]; 70 g/ha alone
  % Injury Ob: 80%
[10]; 35 g/ha alone
  % Injury Ob: 0%
[10]; 70 g/ha alone
  % Injury Ob: 0%

## O=C(Nc1ccc(F)cc1)c1cccc(Oc2cccc(C(F)(F)F)c2)n1 [Picolinafen]
[13]; 15 g/ha alone
  SASKR Ob: 60%
[14]
  VERHE Ob: 5%
[15]; 12.5 g/ha
  KCHSC Ob: 5%
[16]; 12.5 g/ha
  SINAR Ob: 5%
[17]; 12.5 g/ha
  VERPE Ob: 0%
[17]; 15 g/ha alone
  VERPE Ob: 43%
[18]; 15 g/ha alone
  MATCH Ob: 10%
[19]; 12.5 g/ha
  VIOTR Ob: 0%
[19]; 15 g/ha alone
  VIOTR Ob: 78%

## O=C(Nc1ccc(F)cc1F)c1cccnc1Oc1cccc(C(F)(F)F)c1 [Diflufenican, N-(2,4-difluorophenyl)-2-[3-(trifluoromethyl)phenoxy]-3-pyridinecarboxamide, reference compound]
[20]
  ALOMY Ob: 0%
[21]
  LOLMG Ob: 0%
[22]
  AVEFA Ob: 0%
[23]
  pest or weed control at 15 g/ha: 0%
[24]
  pest or weed control at 15 g/ha: 3%
[25]
  SETVI Ob: 0%
[15]; 12.5 g/ha alone
  KCHSC Ob: 12%
[26]
  CHEAL Ob: 0%
[16]; 15 g/ha
  SINAR Ob: 0%
[17]; Veronica persica, post-emergence, 12.5 g/ha alone, read-out: VERPE Ob
  pest or weed control at 12.5 g/ha: 7%
[17]; Veronica persica, post-emergence, 15 g/ha, read-out: VERPE Ob
  pest or weed control at 15 g/ha: 38%
[18]; Matricaria, post-emergence, 12.5 g/ha alone, read-out: MATCH Ob
  pest or weed control at 12.5 g/ha: 7%
[18]; Matricaria, post-emergence, 15 g/ha, read-out: MATCH Ob
  pest or weed control at 15 g/ha: 5%
[19]; Viola tricolor, post-emergence, 12.5 g/ha alone, read-out: VIOTR Ob
  pest or weed control at 12.5 g/ha: 35%
[19]; Viola tricolor, post-emergence, 15 g/ha, read-out: VIOTR Ob
  pest or weed control at 15 g/ha: 15%

## O=C(O)CNCP(=O)(O)O [Glyphosate]
[13]; 52.5 g/ha alone
  SASKR Ob: 0%
[15]; 52.5 g/ha alone
  KCHSC Ob: 0%
[19]; Viola tricolor, post-emergence, read-out: VIOTR Ob
  pest or weed control at 52.5 g/ha: 52%
[2]; POLPY, 70 g/ha alone
  % Injury Ob: 0%
[27]
  % Injury Ob: 20%
[28]; 70 g/ha alone
  % Injury Ob: 0%

## O=c1c(Cl)c[nH]c(Cl)c1Cl [Pyriclor]
[28]; 140 g/ha alone
  % Injury Ob: 80%
